Data published in patent publication US9809583B2 (priority 2014, dated 2017).
Where a name gives a salt, the structure may show the parent alone.

Each compound was assayed against androgen receptor (hAR) (Homo sapiens (Human), UniProt P10275) (assay: Test of transcriptional activity (hAR / ARE-Luc dual-luciferase assay in CHO cells)). Conditions: CHO cells with hAR and ARE-Luc, 24 hours; 10 nM DHT = 100%; read-out: EC50 [nM] (mean ± SE).
Assay type: cell-based
Experimental: In order to examine the transcriptional activity of the agonists of the present invention, the following in-vitro experiment was performed. CHO (Chinese hamster ovary) cell line (ATCC, #CCL-61) was seeded in a 96-well plate at a density of 1.5×10^4 cells/well, and cultured for 24 hours. Then, a plasmid hAR and plasmid ARE-Luc-mixed medium was added thereto. The transfected cell line was treated with 0.1˜10,000 nM of SARM derivatives, and then allowed to react for 24 hours.

androgen receptor (hAR), sequence (P10275 whole entry): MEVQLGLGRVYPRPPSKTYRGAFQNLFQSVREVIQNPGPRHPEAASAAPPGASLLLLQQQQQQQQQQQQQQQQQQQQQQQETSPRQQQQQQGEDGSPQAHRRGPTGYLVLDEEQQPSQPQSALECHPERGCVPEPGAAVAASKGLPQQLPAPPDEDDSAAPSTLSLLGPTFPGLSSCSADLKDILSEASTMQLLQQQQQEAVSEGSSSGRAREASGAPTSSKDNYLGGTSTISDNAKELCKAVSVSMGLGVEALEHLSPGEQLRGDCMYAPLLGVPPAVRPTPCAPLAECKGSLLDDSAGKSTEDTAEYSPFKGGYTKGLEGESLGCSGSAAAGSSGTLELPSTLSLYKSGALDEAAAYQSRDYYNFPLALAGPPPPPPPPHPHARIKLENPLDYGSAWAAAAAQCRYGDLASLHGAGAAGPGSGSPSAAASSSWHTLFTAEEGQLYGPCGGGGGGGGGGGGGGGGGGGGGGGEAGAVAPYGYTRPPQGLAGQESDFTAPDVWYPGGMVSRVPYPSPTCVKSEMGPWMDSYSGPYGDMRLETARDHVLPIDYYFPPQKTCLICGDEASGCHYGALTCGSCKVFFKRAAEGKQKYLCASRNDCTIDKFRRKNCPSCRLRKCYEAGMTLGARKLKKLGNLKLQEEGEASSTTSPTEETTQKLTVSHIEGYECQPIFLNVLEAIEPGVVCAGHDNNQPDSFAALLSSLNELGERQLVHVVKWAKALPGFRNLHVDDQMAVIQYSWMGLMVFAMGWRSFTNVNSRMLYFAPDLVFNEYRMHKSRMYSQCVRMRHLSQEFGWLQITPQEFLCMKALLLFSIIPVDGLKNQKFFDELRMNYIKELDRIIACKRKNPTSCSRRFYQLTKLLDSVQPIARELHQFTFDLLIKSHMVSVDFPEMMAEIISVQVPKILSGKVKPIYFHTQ

Question: For “(2R,5S)-3-(3-chloro-4-nitrophenyl)-N-(4-cyanophenyl)-2-(trifluoromethyl)oxazolidine-5-carboxamide [Example 122]”, which EC50 is on record?
Answer: 67.4 nM

Question: With “(2R,5S)-N-(3-chloro-4-cyanophenyl)-3-(4-cyano-3-(trifluoromethyl)phenyl)-2-(trifluoromethyl)oxazolidine-5-carboxamide [Example 134]” as the compound, how does the EC50 read?
Answer: 4.96 nM

Question: Which EC50 does the source give for “(2R,5S)-3-(3-chloro-4-nitrophenyl)-N-(4-cyano-2-fluorophenyl)-2-(trifluoromethyl)oxazolidine-5-carboxamide [Example 124]” here?
Answer: 3.15 nM

Question: Which EC50 does the source give for `CC(=O)Nc1ccc(OC[C@@H]2CN(c3ccc([N+](=O)[O-])c(C)c3)[C@@H](C(F)(F)F)O2)cc1` [Example 54, N-(4-(((2R,5S)-3-(3-methyl-4-nitrophenyl)-2-(trifluoromethyl)oxazolidin-5-yl)methoxy)phenyl)acetamide] here?
Answer: 0.86 nM

Question: How did the EC50 turn out when “(2R,5S)-N-(4-cyano-2-methylphenyl)-3-(4-cyano-3-(trifluoromethyl)phenyl)-2-(trifluoromethyl)oxazolidine-5-carboxamide [Example 133]” was run?
Answer: 44 nM

Question: `N#Cc1ccc(OC[C@@H]2CN(c3ccc([N+](=O)[O-])c(C(F)(F)F)c3)[C@@H](C(F)(F)F)O2)cn1` [Example 65, 5-(((2R,5S)-3-(4-nitro-3-(trifluoromethyl)phenyl)-2-(trifluoromethyl)oxazolidin-5-yl)methoxy)picolinonitrile] was tested. Which EC50 did it give?
Answer: 59.5 nM

Question: How did the EC50 turn out when “(2R,5S)-N-(4-cyano-2,6-difluorophenyl)-3-(4-cyano-3-(trifluoromethyl)phenyl)-2-(trifluoromethyl)oxazolidine-5-carboxamide [Example 129]” was run?
Answer: 4.68 nM

Question: “(2R,5S)-N-(3-chloro-4-cyano-2-fluorophenyl)-3-(4-cyano-3-(trifluoromethyl)phenyl)-2-(trifluoromethyl)oxazolidine-5-carboxamide [Example 130]” was tested. Which EC50 did it give?
Answer: 10.2 nM

Question: With “(2R,5S)-N-(4-cyano-2,5-difluorophenyl)-3-(4-cyano-3-(trifluoromethyl)phenyl)-2-(trifluoromethyl)oxazolidine-5-carboxamide [Example 131]” as the compound, how does the EC50 read?
Answer: 2.35 nM

Question: How did the EC50 turn out when `O=[N+]([O-])c1ccc(N2C[C@@H](COc3ccc(/C=N/O)cc3)O[C@@H]2C(F)(F)F)cc1C(F)(F)F` [Example 87, (E)-4-(((2R,5S)-3-(4-nitro-3-(trifluoromethyl)phenyl)-2-(trifluoromethyl)oxazolidin-5-yl)methoxy)benzaldehyde oxime] was run?
Answer: 9.22 nM

Same assay, conditions: EC50 [nM] (mean ± SE), CHO cells with hAR and ARE-Luc, 24 hours; 10 nM DHT = 100%

Question: With `N#Cc1ccc(N2C[C@@H](COc3ccc(NC(=O)CN)cc3)O[C@@H]2C(F)(F)F)cc1C(F)(F)F` [Example 50, 2-amino-N-(4-(((2R,5S)-3-(4-cyano-3-(trifluoromethyl)phenyl)-2-(trifluoromethyl)oxazolidin-5-yl)methoxy)phenyl)acetamide 2,2,2-trifluoroacetate] as the compound, how does the EC50 read?
Answer: 15.6 nM

Question: `N#Cc1ccc(N2C[C@@H](C(=O)Nc3cccnc3)O[C@@H]2C(F)(F)F)cc1C(F)(F)F` [Example 110, (2R,5S)-3-(4-cyano-3-(trifluoromethyl)phenyl)-N-(pyridin-3-yl)-2-(trifluoromethyl)oxazolidine-5-carboxamide] was tested. Which EC50 did it give?
Answer: 80 nM

Question: Which EC50 does the source give for `CN(C)C(=O)Nc1ccc(OC[C@@H]2CN(c3ccc(C#N)c(C(F)(F)F)c3)[C@@H](C(F)(F)F)O2)cc1` [Example 40, 3-(4-(((2R,5S)-3-(4-cyano-3-(trifluoromethyl)phenyl)-2-(trifluoromethyl)oxazolidin-5-yl)methoxy)phenyl)-1,1-dimethylurea] here?
Answer: 438 nM

Question: With `N#Cc1ccc(N2C[C@@H](C(=O)Nc3ccc(NC(N)=O)cc3)O[C@@H]2C(F)(F)F)cc1C(F)(F)F` [Example 161, (2R,5S)-3-(4-cyano-3-(trifluoromethyl)phenyl)-2-(trifluoromethyl)-N-(4-ureidophenyl)oxazolidine-5-carboxamide] as the compound, how does the EC50 read?
Answer: 240 nM

Question: With `N#Cc1cccc(OC[C@@H]2CN(c3ccc(C#N)c(C(F)(F)F)c3)[C@@H](C(F)(F)F)O2)c1` [Example 46, 4-((2R,5S)-5-((3-cyanophenoxy)methyl)-2-(trifluoromethyl)oxazolidin-3-yl)-2-(trifluoromethyl)benzonitrile] as the compound, how does the EC50 read?
Answer: 31.5 nM

Question: `CCC(=O)Nc1ccc(NC(=O)[C@@H]2CN(c3ccc(C#N)c(C(F)(F)F)c3)[C@@H](C(F)(F)F)O2)cc1` [Example 158, (2R,5S)-3-(4-cyano-3-(trifluoromethyl)phenyl)-N-(4-propionamidophenyl)-2-(trifluoromethyl)oxazolidine-5-carboxamide] was tested. Which EC50 did it give?
Answer: 12.5 nM

Question: For `CC(=O)Nc1ccc(NC(=O)[C@@H]2CN(c3ccc(C#N)c(C(F)(F)F)c3)[C@@H](C(F)(F)F)O2)c(F)c1` [Example 106, (2R,5S)-N-(4-acetamido-2-fluorophenyl)-3-(4-cyano-3-(trifluoromethyl)phenyl)-2-(trifluoromethyl)oxazolidine-5-carboxamide], which EC50 is on record?
Answer: 154 nM

Question: `Cc1c(N2C[C@@H](COc3ccc(C#N)nc3)O[C@@H]2C(F)(F)F)ccc(C#N)c1Cl` [Example 77, 5-(((2R,5S)-3-(3-chloro-4-cyano-2-methylphenyl)-2-(trifluoromethyl)oxazolidin-5-yl)methoxy)picolinonitrile] was tested. Which EC50 did it give?
Answer: 10.6 nM

Question: Which EC50 does the source give for `N#Cc1ccc(NC(=O)[C@@H]2CN(c3ccc(C#N)c(C(F)(F)F)c3)[C@@H](C(F)(F)F)O2)cc1C(F)(F)F` [Example 144, (2R,5S)-N,3-bis(4-cyano-3-(trifluoromethyl)phenyl)-2-(trifluoromethyl)oxazolidine-5-carboxamide] here?
Answer: 11.1 nM

Question: For `CCc1cc(C#N)ccc1NC(=O)[C@@H]1CN(c2ccc(C#N)c(C(F)(F)F)c2)[C@@H](C(F)(F)F)O1` [Example 145, (2R,5S)-N-(4-cyano-2-ethylphenyl)-3-(4-cyano-3-(trifluoromethyl)phenyl)-2-(trifluoromethyl)oxazolidine-5-carboxamide], which EC50 is on record?
Answer: 305 nM

Question: Which EC50 does the source give for `N#Cc1ccc(N2C[C@@H](COc3ccccc3)O[C@@H]2C(F)(F)F)cc1C(F)(F)F` [Example 58, 4-((2R,5S)-5-(phenoxymethyl)-2-(trifluoromethyl)oxazolidin-3-yl)-2-(trifluoromethyl)benzonitrile] here?
Answer: 107 nM

Question: How did the EC50 turn out when `N#Cc1ccc(OC[C@@H]2CN(c3ccc(C#N)c(Cl)c3)[C@@H](C(F)(F)F)O2)cc1` [Example 71, 2-chloro-4-((2R,5S)-5-((4-cyanophenoxy)methyl)-2-(trifluoromethyl)oxazolidin-3-yl)benzonitrile] was run?
Answer: 1.57 nM

Question: Which EC50 does the source give for `N#Cc1ccc(N2C[C@@H](C(=O)Nc3ccc(N)cc3Cl)O[C@@H]2C(F)(F)F)cc1C(F)(F)F` [Example 152, (2R,5S)-N-(4-amino-2-chlorophenyl)-3-(4-cyano-3-(trifluoromethyl)phenyl)-2-(trifluoromethyl)oxazolidine-5-carboxamide] here?
Answer: 521 nM

Question: `CC(C)OC(=O)Nc1ccc(OC[C@@H]2CN(c3ccc(C#N)c(C(F)(F)F)c3)[C@@H](C(F)(F)F)O2)cc1` [Example 42, isopropyl (4-(((2R,5S)-3-(4-cyano-3-(trifluoromethyl)phenyl)-2-(trifluoromethyl)oxazolidin-5-yl)methoxy)phenyl)carbamate] was tested. Which EC50 did it give?
Answer: 514 nM

Question: Which EC50 does the source give for `N#Cc1ccc(N2C[C@@H](C(=O)N3CCC(N)CC3)O[C@@H]2C(F)(F)F)cc1C(F)(F)F` [Example 175, 4-((2R,5S)-5-(4-aminopiperidine-1-carbonyl)-2-(trifluoromethyl)oxazolidin-3-yl)-2-(trifluoromethyl)benzonitrile hydrochloride] here?
Answer: 85.2 nM

Question: `N#Cc1ccc(N2C[C@@H](C(=O)Nc3ccc(NC(=O)CN)cc3)O[C@@H]2C(F)(F)F)cc1C(F)(F)F` [Example 163, (2R,5S)-N-(4-(2-aminoacetamido)phenyl)-3-(4-cyano-3-(trifluoromethyl)phenyl)-2-(trifluoromethyl)oxazolidine-5-carboxamide hydrochloride] was tested. Which EC50 did it give?
Answer: 214 nM

Question: For `N#Cc1ccc(N2C[C@@H](COc3ccc(NC(=O)CO)cc3)O[C@@H]2C(F)(F)F)cc1C(F)(F)F` [Example 94, N-(4-(((2R,5S)-3-(4-cyano-3-(trifluoromethyl)phenyl)-2-(trifluoromethyl)oxazolidin-5-yl)methoxy)phenyl)-2-hydroxyacetamide], which EC50 is on record?
Answer: 4.12 nM

Question: For `N#Cc1ccc(N2C[C@@H](COc3ccc(NC(=O)Oc4ccccc4)cc3)O[C@@H]2C(F)(F)F)cc1C(F)(F)F` [Example 43, phenyl (4-(((2R,5S)-3-(4-cyano-3-(trifluoromethyl)phenyl)-2-(trifluoromethyl)oxazolidin-5-yl)methoxy)phenyl)carbamate], which EC50 is on record?
Answer: 21.3 nM

Question: How did the EC50 turn out when `N#Cc1ccc(N2C[C@@H](COc3ccc(NC(N)=O)cc3)O[C@@H]2C(F)(F)F)cc1C(F)(F)F` [Example 15, 1-(4-(((2R,5S)-3-(4-cyano-3-(trifluoromethyl)phenyl)-2-(trifluoromethyl)oxazolidin-5-yl)methoxy)phenyl)urea] was run?
Answer: 15.7 nM

Question: How did the EC50 turn out when `N#Cc1ccc(N2C[C@@H](C(=O)Nc3ccncc3)O[C@@H]2C(F)(F)F)cc1C(F)(F)F` [Example 107, (2R,5S)-3-(4-cyano-3-(trifluoromethyl)phenyl)-N-(pyridin-4-yl)-2-(trifluoromethyl)oxazolidine-5-carboxamide] was run?
Answer: 7.18 nM

Question: For `CNC(=O)Nc1ccc(OC[C@@H]2CN(c3ccc(C#N)c(C(F)(F)F)c3)[C@@H](C(F)(F)F)O2)cc1` [Example 16, 1-(4-(((2R,5S)-3-(4-cyano-3-(trifluoromethyl)phenyl)-2-(trifluoromethyl)oxazolidin-5-yl)methoxy)phenyl)-3-methylurea], which EC50 is on record?
Answer: 21.3 nM

Question: How did the EC50 turn out when `N#Cc1ccc(N2C[C@@H](COc3ccc(-c4nnco4)cc3)O[C@@H]2C(F)(F)F)cc1C(F)(F)F` [Example 18, 4-((2R,5S)-5-((4-(1,3,4-oxadiazol-2-yl)phenoxy)methyl)-2-(trifluoromethyl)oxazolidin-3-yl)-2-(trifluoromethyl)benzonitrile] was run?
Answer: 18.6 nM
